Reference: US11103698B2, “Using alternating electric fields to increase cell membrane permeability” (The Board of Trustees of the Leland Stanford Junior …, priority 2018, dated 2021)

How the values were obtained:
[1] = target: T1, purified firefly luciferase (Photinus pyralis, UniProt P08659); experiment: Activity of purified firefly luciferase exposed to TTFields; assay type: biochemical; settings: 200 kHz TTFields, 60 minutes after initiation
T1 construct: purchased Sigma Aldrich Inc (St. Louis, Mo.) SRE0045-2 MG

GBM39 cells (GBM39/Luc) = experiment: Sensitivity to drug and synergy with TTFields; assay type: cell-based, human; settings: for synergy of combination with TTFields: GBM39/Luc; for sensitivity of cells to various concentrations of drug: TTFields for 3 days vs no TTFields
human glioblastoma cells = experiment: Growth inhibition by TTFields in conjunction with compound; assay type: cell-based
From the text: In this figure, 5-ALA=5-aminolevulinic acid; Ethidium D=ethidium bromide; and FITC=fluorescein isothiocyanate.

U87-MG/GFP-Luc cells = experiment: Sensitivity to drug and synergy with TTFields; assay type: cell-based, human
U87-MG/eGFP-fLuc cells [2] = experiment: Annexin-V-APC binding (apoptosis positive control), fluorescence microscopy; assay type: cell-based, human; settings: 21 μM, positive control for apoptosis, TTFields-unexposed
Protocol: To test if the imposition of TTFields affects cell membrane properties, and thus membrane permeability, the effect of TTFields on the behavior of fluorescently tagged reagents that bind to the cellular membrane was determined. Initially, the impact of TTFields on the binding of Annexin-V-APC to the membrane of U87-MG/eGFP-fLuc cells was measured. Annexin-V-APC binding is a signature of early apoptosis which is characterized by ruffling of the membrane.

MDA-MB-235 cells = experiment: Sensitivity to drug and synergy with TTFields; assay type: cell-based
[3] = tested on: MDA-MB-435 cells, doxorubicin resistant; experiment: Intracellular accumulation of doxorubicin under alternating electric fields; assay type: cell-based, human; settings: 150 kHz, 1.62 V/cm, 23 h, then doxorubicin 10 μM for 1 h with field; vs no field
[4] = tested on: MDA-MB-435 cells, wild type; experiment: as above; assay type: cell-based, human; settings: 150 kHz, 1.62 V/cm, 23 h, then doxorubicin 10 μM for 1 h with field; vs no field
MES-SA cells = experiment: Intracellular accumulation of doxorubicin under 150 kHz alternating electric fields; assay type: cell-based; settings: 1.62 V/cm RMS, 24 h, doxorubicin 10 μM for last hour, vs untreated with field
[5] = tested on: KR158B murine astrocytoma cell line; experiment: Bioluminescence imaging of Renilla luciferase-expressing astrocytoma cells under TTFields (coelenterazine substrate); assay type: cell-based; settings: TTFields exposure vs no TTFields
From the text: Renilla luciferase activity is not dependent upon ATP and magnesium (as opposed to firefly luciferase). Thus, it is believed that the induction of bioluminescence by TTFields was not due to alterations in endogenous pools of ATP.

U87-MG cells [6] = experiment: 5-ALA uptake (PpIX fluorescence) under TTFields, single culture; assay type: cell-based, human
Protocol: Experiments were performed to determine the effects of TTFields on uptake of 5-ALA (as measured by PpIX accumulation and its resultant fluorescence) in glioblastoma cells. Because it is difficult to distinguish the margin between tumor and normal cells using the present 5-ALA bioassay, the measurement of PpIX fluorescence was used to address this issue. Investigations were run to determine whether permeation of 5-ALA through the cellular membrane and into the glioblastoma cells could be increased with TTFields exposure. U87-MG cells were exposed or unexposed to TTFields, each for durations of 6-24 h.
All monovariant statistical comparisons between no TTFields vs. TTFields samples done by Student's t-test for n=3 experiments per time point.

[7] = tested on: U87-MG GBM on PCS-201 fibroblast co-cultures; experiment: 5-ALA uptake (PpIX fluorescence) in glioblastoma-fibroblast co-culture under TTFields; assay type: cell-based, human
U87-MG/eGFP-fLuc cells [8] = tested on: U87-MG/eGFP-fLuc cells
Protocol: U87-MG/eGFP-fLuc cells were seeded on Thermanox glass coverslips, allowed to settle and grow, and then subjected to either TTFields or no TTFields.
To assess the reversibility of the effect of TTFields on cancer cells, U87-MG/eGFP-fLuc cells were subjected to three conditions: (1) No TTFields exposure, standard cell culture conditions (37° C., 95% 02, 5% CO2), (2) TTFields exposure for 24 h and (3) TTFields exposure for 24 h followed by no TTFields exposure for 24 h. The readouts of BLI, PpIX fluorescence (5-ALA product) and Dextran-FITC (4 kDa) fluorescence were acquired. All experimental conditions were done in triplicate.
Briefly, cells in culture were trypsinized via standard protocols and 10,000-50,000 single cells were suspended in 200 or 75 μL of DMEM/10% FBS/1×antibiotic-antimycotic and then were seeded onto the center of a 22 mm or 12 mm diameter glass Thermanox™ coverslips respectively (ThermoFisher Scientific, Waltham, Mass., USA). The cells were incubated overnight in a humidified 95% air/5% CO2 incubator set at 37° C. Once the cells became attached to the coverslip, 2 mL or 1 mL of DMEM/10% FBS/lx antibiotic-antimycotic was added per well of 6-well or 12-well plates, respectively. […]

[9] = tested on: MCF-7 human breast adenocarcinoma cells, wild type; experiment: Intracellular accumulation of mitoxantrone under alternating electric fields; assay type: cell-based; settings: 150 kHz, 1.62 V/cm, 23 h, then mitoxantrone 2 μM for 1 h with field; vs no field
Protocol: (§1) The intracellular accumulation of mitoxantrone was then measured.

[10] = tested on: MCF-7 cells, mitoxantrone resistant; experiment: as above; assay type: cell-based, human; settings: 150 kHz, 1.62 V/cm, 23 h, then mitoxantrone 2 μM for 1 h with field; vs no field
Protocol: as §1

U87-MG cells [11] = experiment: 7-AAD accumulation by flow cytometry under alternating electric fields; assay type: cell-based, human; settings: 300 kHz, 1.62 V/cm RMS, 24 h; 7-AAD introduced 15 minutes prior to cessation of the field (other timings after cessation: no significant increase)
Protocol: FIG. 7D depicts the results of an experiment to test how quickly the permeability drops back down after cessation of the alternating electric fields. More specifically, 7-Aminoactinomycin D (7-AAD) is a fluorescent chemical compound with a strong affinity for DNA. […] 7-AAD was introduced into samples at five different times: 15 minutes prior to the cessation of the alternating electric field; immediately after cessation of the alternating electric field; and 15, 30, and 60 minutes after cessation of the alternating electric field. In each case, the cells were incubated with 7-AAD for 30 minutes after introduction of the 7-AAD, followed by flow cytometry analysis of the percentage of cells with increased accumulation of the fluorescent 7-AAD for each of the different timings.
After this 15 minute period, alternating electric field application was terminated and the cells were incubated at room temperature for an additional 15 minutes, followed by flow cytometry analysis of the percentage of cells with increased accumulation of the fluorescent 7-AAD for each of the different frequencies.

[12] = tested on: MDA-MB-435 human melanoma cell line cells; experiment: as above; assay type: cell-based; settings: 150 kHz, 1.62 V/cm, 24 h
Protocol: After this 15 minute period, alternating electric field application was terminated and the cells were incubated at room temperature for an additional 15 minutes.
After this 24 hour period, the alternating electric fields were turned off for 15 minutes, after which the 7-AAD was added. After waiting an additional 15 minutes, the percentage of cells with increased accumulation of the fluorescent 7-AAD was determined using flow cytometry.

[13] = TTFields for 3 days vs no TTFields

T1 sequence (P08659 whole entry): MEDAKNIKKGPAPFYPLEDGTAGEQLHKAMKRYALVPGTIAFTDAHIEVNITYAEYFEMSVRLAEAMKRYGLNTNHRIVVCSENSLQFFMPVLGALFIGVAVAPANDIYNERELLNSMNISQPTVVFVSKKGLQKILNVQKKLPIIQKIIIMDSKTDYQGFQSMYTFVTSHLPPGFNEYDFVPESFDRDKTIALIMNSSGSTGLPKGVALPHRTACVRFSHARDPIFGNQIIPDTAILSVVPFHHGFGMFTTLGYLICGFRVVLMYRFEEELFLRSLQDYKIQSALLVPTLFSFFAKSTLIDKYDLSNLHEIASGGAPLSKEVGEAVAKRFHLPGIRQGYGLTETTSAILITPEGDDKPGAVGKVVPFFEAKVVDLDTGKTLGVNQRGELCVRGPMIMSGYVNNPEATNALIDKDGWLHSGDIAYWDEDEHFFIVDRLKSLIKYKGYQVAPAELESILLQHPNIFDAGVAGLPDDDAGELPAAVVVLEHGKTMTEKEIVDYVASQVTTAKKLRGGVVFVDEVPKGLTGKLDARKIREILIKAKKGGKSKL

## firefly luciferase: purified firefly luciferase enzyme (Sigma Aldrich SRE0045-2 MG)
[1]
  loss in enzymatic activity: > 1000 fold

## CCc1c2c(nc3ccc(OC(=O)N4CCC(N5CCCCC5)CC4)cc13)-c1cc3c(c(=O)n1C2)COC(=O)[C@]3(O)CC [Irinotecan]
GBM39 cells (GBM39/Luc)
  synergy of combination with TTFields: synergy was found
GBM39 cells (GBM39/Luc); GBM39/Luc cells
  sensitivity of cells to various concentrations of drug: improves the sensitivity

## CC1=C(CO)C(=O)O[C@@H]([C@@H](C)[C@H]2CC[C@H]3[C@@H]4C[C@H]5O[C@]56[C@@H](O)C=CC(=O)[C@]6(C)[C@H]4CC[C@]23C)C1 [Withaferin A]
Human glioblastoma cells
  growth inhibition in conjunction with TTFields: synergistically inhibited
GBM39 cells (GBM39/Luc)
  synergy of combination with TTFields: synergy was found
pcGBM2/GFP-Luc cells
  synergy of combination with TTFields: synergy was found
U87-MG/GFP-Luc cells
  synergy of combination with TTFields: synergy was found
U87-MG/eGFP-fLuc cells [2]
  Annexin-V-APC binding to cells (early apoptosis): could be visualized

## COc1cccc2c1C(=O)c1c(O)c3c(c(O)c1C2=O)C[C@@](O)(C(=O)CO)C[C@@H]3O[C@H]1C[C@H](N)[C@H](O)[C@H](C)O1 [doxorubicin]
MDA-MB-235 cells
  synergy of combination with TTFields: Evidence of synergy
MDA-MB-235 cells; [13]
  sensitivity of cells to various concentrations of drug: improves the sensitivity
[3]
  intracellular accumulation of doxorubicin: increased
[4]
  intracellular accumulation of doxorubicin: increased
MES-SA cells
  increase in intracellular accumulation of doxorubicin: more than 2 ×

## Oc1ccc(Cc2nc3c(Cc4ccccc4)nc(-c4ccc(O)cc4)cn3c2O)cc1 [coelenterazine]
[5]
  permeation of the luciferase substrate through the plasma membrane (bioluminescence): increased permeation

## NCC(=O)CCC(=O)O [5-ALA, 5-aminolevulinic acid]
U87-MG cells [6]; 6 h TTFields vs no TTFields, p=0.047
  uptake of 5-ALA (PpIX fluorescence): significantly increased uptake
U87-MG cells [6]; 24 h TTFields vs no TTFields, p=0.011
  uptake of 5-ALA (PpIX fluorescence): increase was maintained
U87-MG cells [6]; no TTFields vs TTFields 24 h vs TTFields 24 h followed by no TTFields 24 h, FIG. 7B
  uptake (PpIX fluorescence), reversibility: reversibly increase uptake
[7]; 24 h TTFields vs no TTFields, p=0.043
  ratio of PpIX fluorescence intensity in U87-MG cells over surrounding PCS-201 fibroblast cells: significantly increased
[7]; TTFields-exposed vs unexposed co-cultures, 2, 6, 24 h, p<0.001
  rate of PpIX fluorescence intensity increase: significantly augmented

## O=C(O)[C@H]1CSC(c2nc3ccc(O)cc3s2)=N1 [D-luciferin]
U87-MG/eGFP-fLuc cells [8]; TTFields exposure vs no TTFields
  permeation of the luciferase substrate through the plasma membrane (bioluminescence): increased permeation
U87-MG/eGFP-fLuc cells [8]; no TTFields vs TTFields 24 h vs TTFields 24 h followed by no TTFields 24 h, FIG. 7A
  uptake (BLI flux), reversibility: reversibly increase uptake

## O=C1c2c(O)ccc(O)c2C(=O)c2c(NCCNCCO)ccc(NCCNCCO)c21 [mitoxantrone]
[9]
  intracellular accumulation of mitoxantrone: increased
[10]
  intracellular accumulation of mitoxantrone: increased

## Cc1c2oc3c(C)c(N)cc(C(=O)N[C@@H]4C(=O)N[C@H](C(C)C)C(=O)N5CCC[C@H]5C(=O)N(C)CC(=O)N(C)[C@@H](C(C)C)C(=O)O[C@@H]4C)c3nc-2c(C(=O)N[C@@H]2C(=O)N[C@H](C(C)C)C(=O)N3CCC[C@H]3C(=O)N(C)CC(=O)N(C)[C@@H](C(C)C)C(=O)O[C@@H]2C)c(N)c1=O [7-AAD, 7-Aminoactinomycin D]
U87-MG cells [11]
  accumulation of 7-AAD (percentage of cells with increased accumulation): significant increase
[12]; 7-AAD added for last 15 min while field continued
  percentage of cells with increased accumulation of 7-AAD: ~66%
[12]; fields turned off for 15 minutes before 7-AAD was added
  percentage of cells with increased accumulation of 7-AAD: ~20%

## O=NN(CCCl)C(=O)NC1CCCCC1 [Lomustine]
GBM39 cells (GBM39/Luc); GBM39 cells
  sensitivity of cells to various concentrations of drug: improves the sensitivity
pcGBM2/GFP-Luc cells; [13]
  sensitivity of cells to various concentrations of drug: improves the sensitivity
U87-MG/GFP-Luc cells; [13]
  sensitivity of cells to various concentrations of drug: improves the sensitivity
